Measured values taken from US20130183323A1, “TARGETED ANTIBIOTIC AND ANTIMICROBIAL TREATMENTS FOR PERSONALIZED ADMINISTRATION” (priority 2011, published 2013).
≈ marks a conversion by molar mass, not a printed value.

Columns and labels:
Assay in all cases: minimum inhibition concentration (MIC) for tetracycline
Format in all cases: cell-based
Conditions in all cases: tetracycline resistant isolate from aquaculture environment
Enterococcus sp. 18fT3 = test system: Enterococcus sp. 18fT3
Description: (§1) Study 1. The variability of antibiotic resistant (ART) bacteria in responding to drug treatment was evaluated using tetracycline resistant isolates in brain heart infusion (BHI) broth. […] All strains were isolated from aquaculture environment. The bacteria in different titer were grown in BHI with different concentration of tetracycline conjugated to antibody against Enterococcus.

Enterococcus sp. 17fT4 = test system: Enterococcus sp. 17fT4
Description: as §1

[1] = test system: Plesiomonas shigelloides 17iT21
Description: as §1

## CN(C)[C@@H]1C(O)=C(C(N)=O)C(=O)[C@@]2(O)C(O)=C3C(=O)c4c(O)cccc4[C@@](C)(O)[C@H]3C[C@@H]12 [tetracycline]
Enterococcus sp. 18fT3
  MIC: 512 µg/mL (≈ 1150 µM)
Enterococcus sp. 17fT4
  MIC: 128 µg/mL (≈ 288 µM)
[1]
  MIC: 64 µg/mL (≈ 144 µM)
